Columns and labels:
Human Melanocortin (MC3) = molecular target: T1, Human Melanocortin (MC3) (Homo sapiens, UniProt P41968); test: Radioligand binding, human melanocortin MC3 membranes, FlashPlate, [125I]-NDP-αMSH; settings: compound at 10 μM, [125I]-NDP-αMSH
T1 construct: purchased Perkin Elmer Biosignal
How it was run: (§1)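 Cloned human receptor membranes were coated onto FlashPlate wells and incubated with radioligand and compound (added from a 0.5 mM DMSO daughter plate) for 1 hour at room temperature in the dark. Scintillation counting gave percent inhibition, with DMSO defining total and reference ligand defining non-specific binding.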

Human μ-opioid (MOP) = molecular target: T2, Human μ-opioid (MOP) (Homo sapiens, UniProt P35372); test: Radioligand binding, human μ-opioid (MOP) membranes, FlashPlate, [3H]-Naloxone; settings: compound at 10 μM, [3H]-Naloxone
T2 construct: purchased Perkin Elmer Biosignal
How it was run: as §1

Human neurokinin (NK1) = molecular target: T3, Human neurokinin (NK1) (Homo sapiens, UniProt P25103); test: Radioligand binding, human neurokinin NK1 membranes, filtration, [125I]-Substance P; settings: compound at 10 μM, [125I]-Substance P
T3 construct: purchased Perkin Elmer Biosignal
How it was run: (§2)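 Filtration binding on cloned human receptor membranes (1 Unit/well), [125I]-Substance P for NK1 and [3H]-Diprenorphine for KOP, 1 h at room temperature. Filters PEI-presoaked, washed with cold 50 mM Tris-HCl pH 7.4, counted by scintillation; percent inhibition calculated, reference ligand defining non-specific binding.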

[1] = molecular target: T4, Human melanin-concentrating hormone (MCH1) (Homo sapiens, UniProt Q99705); test: Radioligand binding, human melanin-concentrating hormone MCH1 membranes, FlashPlate, [125I]-S36057; settings: compound at 10 μM
T4 construct: purchased Perkin Elmer Biosignal
How it was run: as §1

Mouse urotensin (mUR2) = molecular target: T5, Mouse urotensin (mUR2) (Mus musculus, UniProt Q8VIH9); test: Radioligand binding, mouse urotensin mUR2 membranes, FlashPlate, [125I]-Urotensin II; settings: compound at 10 μM, [125I]-Urotensin II
T5 construct: purchased Perkin Elmer Biosignal
T5 sequence (Q8VIH9 1-385): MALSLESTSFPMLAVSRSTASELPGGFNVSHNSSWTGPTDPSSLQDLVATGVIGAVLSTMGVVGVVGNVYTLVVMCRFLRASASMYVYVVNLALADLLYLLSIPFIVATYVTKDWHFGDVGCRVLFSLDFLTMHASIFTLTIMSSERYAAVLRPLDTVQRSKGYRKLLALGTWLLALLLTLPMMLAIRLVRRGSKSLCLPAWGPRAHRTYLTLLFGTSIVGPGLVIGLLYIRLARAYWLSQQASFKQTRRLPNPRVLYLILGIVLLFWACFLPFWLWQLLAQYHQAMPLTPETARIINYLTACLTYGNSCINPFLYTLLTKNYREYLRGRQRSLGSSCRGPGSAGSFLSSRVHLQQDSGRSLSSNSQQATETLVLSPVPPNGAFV
How it was run: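 Cloned mouse urotensin (mUR2) receptor membranes from Perkin Elmer Biosignal were immobilized in FlashPlate microplates using a proprietary coating. Each well got 19.5 μl buffer, then 0.5 μl of DMSO, reference ligand, or compound. Adding 5 μl of [125I]-Urotensin II, diluted to 5× final concentration in binding buffer, started binding. Plates were sealed with TopSeal-A and incubated 1 hour at room temperature in the dark. Wells were counted for 30 seconds each on a TopCount after a 60-second delay, and percentage inhibition was calculated.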

Human κ-Opioid (KOP) = molecular target: T6, Human κ-Opioid (KOP) (Homo sapiens, UniProt P41145); test: Radioligand binding, human κ-opioid (KOP) membranes, filtration, [3H]-Diprenorphine; settings: compound at 10 μM, [3H]-Diprenorphine
T6 construct: purchased Perkin Elmer Biosignal
How it was run: as §2

Human melanocortin (MC5) = molecular target: T7, Human melanocortin (MC5) (Homo sapiens, UniProt P33032); test: Radioligand binding, human melanocortin MC5 membranes, FlashPlate, [125I]-NDP-αMSH; settings: compound at 10 μM, [125I]-NDP-αMSH
T7 construct: purchased Perkin Elmer Biosignal
How it was run: as §1

Human opioid (ORL1) = molecular target: T8, Human opioid (ORL1) (Homo sapiens, UniProt P41146); test: Radioligand binding, human opioid ORL1 membranes, FlashPlate, [125I]-Nociceptin; settings: compound at 10 μM, [125I]-Nociceptin
T8 construct: purchased Perkin Elmer Biosignal
How it was run: as §1

[2] = molecular target: T9, Human neuropeptide Y (NPY-Y1) (Homo sapiens, UniProt P25929); test: Radioligand binding, human neuropeptide Y NPY-Y1 membranes, FlashPlate, [125I]-PYY; settings: compound at 10 μM, [125I]-PYY
T9 construct: purchased Perkin Elmer Biosignal
T9 sequence (P25929 1-384): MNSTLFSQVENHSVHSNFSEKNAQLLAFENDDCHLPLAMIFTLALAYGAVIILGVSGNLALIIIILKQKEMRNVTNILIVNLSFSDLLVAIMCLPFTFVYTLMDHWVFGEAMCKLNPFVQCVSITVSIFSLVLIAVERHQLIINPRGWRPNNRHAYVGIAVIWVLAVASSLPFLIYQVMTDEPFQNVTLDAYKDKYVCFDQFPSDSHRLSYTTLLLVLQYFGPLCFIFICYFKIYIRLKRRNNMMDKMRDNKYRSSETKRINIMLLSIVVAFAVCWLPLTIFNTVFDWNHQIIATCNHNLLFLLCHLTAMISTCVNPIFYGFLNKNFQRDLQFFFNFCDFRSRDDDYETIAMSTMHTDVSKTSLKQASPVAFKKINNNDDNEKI
How it was run: as §1

Human Melanocortin (MC4) = molecular target: T10, Human Melanocortin (MC4) (Homo sapiens, UniProt P32245); test: Radioligand binding, human melanocortin MC4 membranes, FlashPlate, [125I]-NDP-αMSH; settings: compound at 10 μM, [125I]-NDP-αMSH
T10 construct: purchased Perkin Elmer Biosignal
How it was run: as §1

Human δ-opioid (DOP) = molecular target: T11, Human δ-opioid (DOP) (Homo sapiens, UniProt P41143); test: Radioligand binding, human δ-opioid (DOP) membranes, FlashPlate, [3H]-Bremazocine; settings: compound at 10 μM, [3H]-Bremazocine
T11 construct: purchased Perkin Elmer Biosignal
How it was run: as §1

[3] = [125I]-S36057, human MCH1 membranes

T1 sequence (P41968 whole entry): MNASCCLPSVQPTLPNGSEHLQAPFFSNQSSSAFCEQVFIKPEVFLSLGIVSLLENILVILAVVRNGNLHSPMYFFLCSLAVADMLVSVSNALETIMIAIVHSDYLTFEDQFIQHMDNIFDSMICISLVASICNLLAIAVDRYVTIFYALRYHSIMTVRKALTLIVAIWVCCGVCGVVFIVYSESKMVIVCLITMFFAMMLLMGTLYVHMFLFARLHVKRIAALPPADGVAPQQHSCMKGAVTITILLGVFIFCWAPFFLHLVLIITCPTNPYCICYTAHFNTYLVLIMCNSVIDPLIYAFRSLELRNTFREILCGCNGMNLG
T8 sequence (P41146 whole entry): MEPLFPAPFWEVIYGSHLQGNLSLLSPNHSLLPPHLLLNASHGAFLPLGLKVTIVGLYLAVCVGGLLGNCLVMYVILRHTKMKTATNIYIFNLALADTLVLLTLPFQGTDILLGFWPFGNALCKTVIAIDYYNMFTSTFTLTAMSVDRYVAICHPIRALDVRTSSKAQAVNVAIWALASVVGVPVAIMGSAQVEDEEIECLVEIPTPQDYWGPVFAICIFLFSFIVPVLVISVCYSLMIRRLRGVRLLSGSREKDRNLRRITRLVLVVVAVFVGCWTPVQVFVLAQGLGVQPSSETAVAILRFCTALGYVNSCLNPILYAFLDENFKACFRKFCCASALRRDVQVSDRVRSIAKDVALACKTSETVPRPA
T7 sequence (P33032 whole entry): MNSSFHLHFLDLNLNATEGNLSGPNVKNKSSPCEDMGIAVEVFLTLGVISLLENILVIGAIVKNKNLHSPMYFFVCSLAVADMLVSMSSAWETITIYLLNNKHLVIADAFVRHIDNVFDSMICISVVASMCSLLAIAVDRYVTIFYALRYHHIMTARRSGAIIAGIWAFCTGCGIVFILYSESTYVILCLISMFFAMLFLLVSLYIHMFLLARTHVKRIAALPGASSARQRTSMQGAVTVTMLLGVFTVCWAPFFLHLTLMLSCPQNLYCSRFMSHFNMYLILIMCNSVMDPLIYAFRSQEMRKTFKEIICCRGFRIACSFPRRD
T3 sequence (P25103 whole entry): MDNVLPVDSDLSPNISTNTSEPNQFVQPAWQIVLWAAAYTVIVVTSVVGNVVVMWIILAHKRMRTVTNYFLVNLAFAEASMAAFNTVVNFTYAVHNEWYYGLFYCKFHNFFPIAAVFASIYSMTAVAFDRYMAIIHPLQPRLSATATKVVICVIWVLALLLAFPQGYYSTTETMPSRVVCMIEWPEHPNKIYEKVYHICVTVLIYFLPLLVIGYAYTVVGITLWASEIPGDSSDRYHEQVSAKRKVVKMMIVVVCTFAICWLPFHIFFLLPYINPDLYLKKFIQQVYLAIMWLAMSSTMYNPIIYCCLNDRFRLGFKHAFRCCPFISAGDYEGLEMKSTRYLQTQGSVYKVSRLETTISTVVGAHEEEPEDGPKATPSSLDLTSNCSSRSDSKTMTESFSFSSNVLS
T10 sequence (P32245 whole entry): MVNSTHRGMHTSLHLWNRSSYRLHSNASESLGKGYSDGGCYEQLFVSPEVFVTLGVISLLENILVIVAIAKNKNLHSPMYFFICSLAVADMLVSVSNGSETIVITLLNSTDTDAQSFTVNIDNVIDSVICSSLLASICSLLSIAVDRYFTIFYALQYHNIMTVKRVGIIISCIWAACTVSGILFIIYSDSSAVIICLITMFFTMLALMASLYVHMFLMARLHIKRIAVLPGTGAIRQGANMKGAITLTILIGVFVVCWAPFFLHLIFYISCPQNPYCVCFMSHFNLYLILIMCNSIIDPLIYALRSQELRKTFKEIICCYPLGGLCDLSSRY
T11 sequence (P41143 whole entry): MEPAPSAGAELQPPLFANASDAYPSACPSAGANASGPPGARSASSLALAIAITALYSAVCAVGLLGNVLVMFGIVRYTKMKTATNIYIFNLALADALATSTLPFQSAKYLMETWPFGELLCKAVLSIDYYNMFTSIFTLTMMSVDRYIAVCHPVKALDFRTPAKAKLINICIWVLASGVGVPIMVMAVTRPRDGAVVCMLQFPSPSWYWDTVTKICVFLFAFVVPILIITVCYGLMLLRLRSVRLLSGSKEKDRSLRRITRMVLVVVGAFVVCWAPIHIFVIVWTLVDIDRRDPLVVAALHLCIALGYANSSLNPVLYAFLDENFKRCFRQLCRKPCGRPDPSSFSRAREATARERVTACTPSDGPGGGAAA
T2 sequence (P35372 whole entry): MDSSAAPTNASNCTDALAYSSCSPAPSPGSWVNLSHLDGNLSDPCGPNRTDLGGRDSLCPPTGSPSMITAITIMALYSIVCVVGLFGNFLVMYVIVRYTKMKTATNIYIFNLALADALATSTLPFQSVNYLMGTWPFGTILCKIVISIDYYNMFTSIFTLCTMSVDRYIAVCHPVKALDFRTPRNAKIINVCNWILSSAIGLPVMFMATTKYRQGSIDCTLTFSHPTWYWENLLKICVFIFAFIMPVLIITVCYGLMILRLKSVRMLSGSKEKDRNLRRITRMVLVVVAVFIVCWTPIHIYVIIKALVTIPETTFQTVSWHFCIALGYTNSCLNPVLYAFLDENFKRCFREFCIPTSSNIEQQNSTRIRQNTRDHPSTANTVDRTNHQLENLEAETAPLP
T4 sequence (Q99705 whole entry): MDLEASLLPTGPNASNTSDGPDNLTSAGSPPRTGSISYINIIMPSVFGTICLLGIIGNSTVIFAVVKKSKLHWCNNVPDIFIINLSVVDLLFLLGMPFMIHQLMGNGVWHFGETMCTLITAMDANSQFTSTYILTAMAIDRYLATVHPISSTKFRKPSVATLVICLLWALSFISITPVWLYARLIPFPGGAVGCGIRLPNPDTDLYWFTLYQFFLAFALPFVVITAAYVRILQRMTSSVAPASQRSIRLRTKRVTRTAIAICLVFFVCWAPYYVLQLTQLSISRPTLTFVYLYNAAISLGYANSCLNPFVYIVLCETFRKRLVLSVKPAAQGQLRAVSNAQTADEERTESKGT
T6 sequence (P41145 whole entry): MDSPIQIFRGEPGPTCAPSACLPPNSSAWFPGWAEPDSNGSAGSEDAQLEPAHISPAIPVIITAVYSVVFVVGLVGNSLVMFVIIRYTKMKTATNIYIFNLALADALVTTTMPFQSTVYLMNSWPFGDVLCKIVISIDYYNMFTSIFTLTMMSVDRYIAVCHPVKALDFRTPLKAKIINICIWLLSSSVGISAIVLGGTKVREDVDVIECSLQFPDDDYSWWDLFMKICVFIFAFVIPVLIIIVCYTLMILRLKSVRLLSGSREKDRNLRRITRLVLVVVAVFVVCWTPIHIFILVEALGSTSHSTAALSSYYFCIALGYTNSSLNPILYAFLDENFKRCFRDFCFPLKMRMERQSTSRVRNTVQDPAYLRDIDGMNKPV

Row | Structure (SMILES) | A3: inhibition of radioligand binding (Human Melanocortin (MC3); FlashPlate) | A7: inhibition of radioligand binding (Human μ-opioid (MOP); FlashPlate) | A8: inhibition of radioligand binding (Human neurokinin (NK1); filtration) | A6: inhibition of radioligand binding ([1]; [125I]-S36057, FlashPlate) | A11: inhibition of radioligand binding (Mouse urotensin (mUR2); FlashPlate) | A2: inhibition of radioligand binding (Human κ-Opioid (KOP); filtration) | A5: inhibition of radioligand binding (Human melanocortin (MC5); FlashPlate) | A10: inhibition of radioligand binding (Human opioid (ORL1); FlashPlate) | A9: inhibition of radioligand binding ([2]; FlashPlate) | A4: inhibition of radioligand binding (Human Melanocortin (MC4); FlashPlate) | A1: inhibition of radioligand binding (Human δ-opioid (DOP); FlashPlate) | A3: inhibition of radioligand binding (Human Melanocortin (MC3); human MC3 membranes) | A7: inhibition of radioligand binding (Human μ-opioid (MOP); human MOP membranes) | A8: inhibition of radioligand binding (Human neurokinin (NK1); human NK1 membranes) | A6: inhibition of radioligand binding [1, 3] | A11: inhibition of radioligand binding (Mouse urotensin (mUR2); mouse mUR2 membranes) | A2: inhibition of radioligand binding (Human κ-Opioid (KOP); human KOP membranes) | A10: inhibition of radioligand binding (Human opioid (ORL1); human ORL1 membranes) | A9: inhibition of radioligand binding ([2]; human NPY-Y1 membranes) | A4: inhibition of radioligand binding (Human Melanocortin (MC4); human MC4 membranes) | also measured
1 | COCC1OC(OCc2ccccc2)C(NC(=O)CCN)C(OCc2ccc3ccccc3c2)C1O (stereo not drawn) [compound 190] | − (“−” indicates less than 50% inhibition at 10 μM) | − (“−” indicates less than 50% inhibition at 10 μM) | + (“+” indicates greater than 50% inhibition at 10 μM) | − (“−” indicates less than 50% inhibition at 10 μM) | − (“−” indicates less than 50% inhibition at 10 μM) | − (“−” indicates less than 50% inhibition at 10 μM) | + (“+” indicates greater than 50% inhibition at 10 μM) | − (“−” indicates less than 50% inhibition at 10 μM) | − (“−” indicates less than 50% inhibition at 10 μM) | − (“−” indicates less than 50% inhibition at 10 μM) | − (“−” indicates less than 50% inhibition at 10 μM) | – | – | – | – | – | – | – | – | – | –
2 | N=C(N)NCC(=O)NC1C(OCc2ccc(-c3ccccc3)cc2)OC(COCc2ccccc2)C(O)C1OCc1ccc(Cl)cc1 (stereo not drawn) [compound 400] | – | – | – | – | – | – | – | – | – | – | – | + (“+” indicates greater than 50% inhibition at 10 μM) | − (“−” indicates less than 50% inhibition at 10 μM) | + (“+” indicates greater than 50% inhibition at 10 μM) | + (“+” indicates greater than 50% inhibition at 10 μM) | − (“−” indicates less than 50% inhibition at 10 μM) | − (“−” indicates less than 50% inhibition at 10 μM) | + (“+” indicates greater than 50% inhibition at 10 μM) | − (“−” indicates less than 50% inhibition at 10 μM) | + (“+” indicates greater than 50% inhibition at 10 μM) | A5: inhibition of radioligand binding (Human melanocortin (MC5); human MC5 membranes): + (“+” indicates greater than 50% inhibition at 10 μM); A1: inhibition of radioligand binding (Human δ-opioid (DOP); human DOP membranes): − (“−” indicates less than 50% inhibition at 10 μM)
3 | NCCC(=O)NC1C(OCc2ccc3ccccc3c2)OC(COCc2ccccc2)C(O)C1OCc1ccccc1 (stereo not drawn) [compound 451] | – | – | – | – | – | – | – | – | – | – | – | − (“−” indicates less than 50% inhibition at 10 μM) | − (“−” indicates less than 50% inhibition at 10 μM) | + (“+” indicates greater than 50% inhibition at 10 μM) | − (“−” indicates less than 50% inhibition at 10 μM) | − (“−” indicates less than 50% inhibition at 10 μM) | − (“−” indicates less than 50% inhibition at 10 μM) | − (“−” indicates less than 50% inhibition at 10 μM) | − (“−” indicates less than 50% inhibition at 10 μM) | + (“+” indicates greater than 50% inhibition at 10 μM) | A5: inhibition of radioligand binding (Human melanocortin (MC5); human MC5 membranes, 10 µM): − (“−” indicates less than 50% inhibition at 10 μM); A1: inhibition of radioligand binding (Human δ-opioid (DOP); human DOP membranes): − (“−” indicates less than 50% inhibition at 10 μM)
4 | COCC1OC(OCc2ccccc2)C(NC(=O)CNC(=N)N)C(OCc2ccc(-c3ccccc3)cc2)C1O (stereo not drawn) [compound 183] | – | – | – | – | – | – | – | – | – | – | – | – | – | – | – | – | – | – | – | – | A3 radioligand binding, percentage inhibition (Human Melanocortin (MC3)): − (“−” indicates less than 50% inhibition at 10 μM); A7 radioligand binding, percentage inhibition (Human μ-opioid (MOP)): − (“−” indicates less than 50% inhibition at 10 μM); A8 radioligand binding, percentage inhibition (Human neurokinin (NK1)): + (“+” indicates greater than 50% inhibition at 10 μM); A6 radioligand binding, percentage inhibition ([1]; [125I]-S36057): + (“+” indicates greater than 50% inhibition at 10 μM); A11 radioligand binding, percentage inhibition (Mouse urotensin (mUR2)): − (“−” indicates less than 50% inhibition at 10 μM); A2 radioligand binding, percentage inhibition (Human κ-Opioid (KOP)): − (“−” indicates less than 50% inhibition at 10 μM); A5 radioligand binding, percentage inhibition (Human melanocortin (MC5)): + (“+” indicates greater than 50% inhibition at 10 μM); A10 radioligand binding, percentage inhibition (Human opioid (ORL1)): − (“−” indicates less than 50% inhibition at 10 μM); A9 radioligand binding, percentage inhibition [2]: − (“−” indicates less than 50% inhibition at 10 μM); A4 radioligand binding, percentage inhibition (Human Melanocortin (MC4)): + (“+” indicates greater than 50% inhibition at 10 μM); A1 radioligand binding, percentage inhibition (Human δ-opioid (DOP)): − (“−” indicates less than 50% inhibition at 10 μM)
5 | COCC1OC(OCCc2ccccc2)C(NC(=O)CCCNC(=N)N)C(OCc2ccccc2)C1O (stereo not drawn) [compound 218] | − (“−” indicates less than 50% inhibition at 10 μM) | − (“−” indicates less than 50% inhibition at 10 μM) | + (“+” indicates greater than 50% inhibition at 10 μM) | − (“−” indicates less than 50% inhibition at 10 μM) | − (“−” indicates less than 50% inhibition at 10 μM) | − (“−” indicates less than 50% inhibition at 10 μM) | − (“−” indicates less than 50% inhibition at 10 μM) | − (“−” indicates less than 50% inhibition at 10 μM) | − (“−” indicates less than 50% inhibition at 10 μM) | − (“−” indicates less than 50% inhibition at 10 μM) | − (“−” indicates less than 50% inhibition at 10 μM) | – | – | – | – | – | – | – | – | – | –
6 | COCC1OC(OCc2ccc(Cl)cc2)C(NC(=O)CCCN)C(OCc2ccc3ccccc3c2)C1O (stereo not drawn) [compound 212] | − (“−” indicates less than 50% inhibition at 10 μM) | − (“−” indicates less than 50% inhibition at 10 μM) | + (“+” indicates greater than 50% inhibition at 10 μM) | − (“−” indicates less than 50% inhibition at 10 μM) | − (“−” indicates less than 50% inhibition at 10 μM) | − (“−” indicates less than 50% inhibition at 10 μM) | + (“+” indicates greater than 50% inhibition at 10 μM) | − (“−” indicates less than 50% inhibition at 10 μM) | − (“−” indicates less than 50% inhibition at 10 μM) | − (“−” indicates less than 50% inhibition at 10 μM) | − (“−” indicates less than 50% inhibition at 10 μM) | – | – | – | – | – | – | – | – | – | –

Source: patent US20080009418A1, “Selective Inhibitors” (Alchemia LTD., priority 2004, published 2008)
